Results from the supplement of paper PMC11061612.

Experiments:
Test in all cases: combination Emax (second highest fraction inhibited in the dose matrix, 72 h); higher = more inhibition; extreme values may be limits of the assay
[1] = system: ALL-SIL (T-Lymphoblastic Leukemia)
In short: (§1)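 Bliss excess equals the observed combination effect minus the expected value EA + EB − EA·EB, where EA and EB are the effects of each agent alone. Combination Emax is the second-highest inhibition within the matrix. Inhibition was scaled from CellTiter-Glo 2.0 luminescence, with 0 set by vehicle wells and 1 by blank wells, after 72 hours of two-drug dosing of cells plated in 1536-well plates.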

[2] = system: HAL-01 (B-Lymphoblastic Leukemia)
In short: as §1

[3] = system: MOG-G-UVW (Low Grade Glioma)
In short: as §1

[4] = system: OE33 (Esophageal Adenocarcinoma)
In short: as §1

CN(C)CCCOc1ccc(-c2ccc3ncc4c(c3c2)n(C2CCOCC2)c(=O)n4C)cn1 [AZD0156] + C=CCn1c(=O)c2cnc(Nc3ccc(N4CCN(C)CC4)cc3)nc2n1-c1cccc(C(C)(C)O)n1 [AZD1775] (first compound max 1 µM, partner max 1 µM)
combination Emax [1]: 0.742 | combination Emax [2]: 0.917 | combination Emax [3]: 0.744 | combination Emax [4]: 0.472

CN(C)CCCOc1ccc(-c2ccc3ncc4c(c3c2)n(C2CCOCC2)c(=O)n4C)cn1 [AZD0156] + CCN(CCO)CCCOc1ccc2c(Nc3cc(CC(=O)Nc4cccc(F)c4)[nH]n3)ncnc2c1 [AZD2811] (first compound max 1 µM, 7x7, partner max 1 µM)
combination Emax [1]: 0.976 | combination Emax [2]: 0.435 | combination Emax [3]: 0.615 | combination Emax [4]: 0.068

CN(C)CCCOc1ccc(-c2ccc3ncc4c(c3c2)n(C2CCOCC2)c(=O)n4C)cn1 [AZD0156] + C[C@@H]1COCCN1C2=NC(=NC(=C2)C3(CC3)[S@](=N)(=O)C)C4=C5C=CNC5=NC=C4 [AZD6738] (first compound max 1 µM, 7x7, partner max 10 µM)
combination Emax [1]: 0.887 | combination Emax [2]: 0.988 | combination Emax [3]: 0.816 | combination Emax [4]: 0.788

CN(C)CCCOc1ccc(-c2ccc3ncc4c(c3c2)n(C2CCOCC2)c(=O)n4C)cn1 [AZD0156] + O=C(c1cc(Cc2n[nH]c(=O)c3ccccc23)ccc1F)N1CCN(C(=O)C2CC2)CC1 [Olaparib] (first compound max 3 µM, partner max 3 µM)
combination Emax [1]: 0.175 | combination Emax [2]: 0.563 | combination Emax [3]: 0.632 | combination Emax [4]: 0.207

C=CCn1c(=O)c2cnc(Nc3ccc(N4CCN(C)CC4)cc3)nc2n1-c1cccc(C(C)(C)O)n1 [AZD1775] + C1CN(CCC1(C(=O)N[C@@H](CCO)C2=CC=C(C=C2)Cl)N)C3=NC=NC4=C3C=CN4 [Capivasertib] (first compound max 3 µM, partner max 3 µM)
combination Emax [1]: 0.936 | combination Emax [2]: 0.977 | combination Emax [3]: 0.891 | combination Emax [4]: 0.639

C=CCn1c(=O)c2cnc(Nc3ccc(N4CCN(C)CC4)cc3)nc2n1-c1cccc(C(C)(C)O)n1 [AZD1775] + C[C@@H]1COCCN1C2=NC(=NC(=C2)C3(CC3)[S@](=N)(=O)C)C4=C5C=CNC5=NC=C4 [AZD6738] (first compound max 1 µM, partner max 10 µM)
combination Emax [1]: 0.992 | combination Emax [2]: 1 | combination Emax [3]: 0.922 | combination Emax [4]: 0.819

C=CCn1c(=O)c2cnc(Nc3ccc(N4CCN(C)CC4)cc3)nc2n1-c1cccc(C(C)(C)O)n1 [AZD1775] + O=C(c1cc(Cc2n[nH]c(=O)c3ccccc23)ccc1F)N1CCN(C(=O)C2CC2)CC1 [Olaparib] (first compound max 1 µM, partner max 10 µM)
combination Emax [1]: 0.899 | combination Emax [2]: 0.935 | combination Emax [3]: 0.864 | combination Emax [4]: 0.507

CCN(CCO)CCCOc1ccc2c(Nc3cc(CC(=O)Nc4cccc(F)c4)[nH]n3)ncnc2c1 [AZD2811] + C=CCn1c(=O)c2cnc(Nc3ccc(N4CCN(C)CC4)cc3)nc2n1-c1cccc(C(C)(C)O)n1 [AZD1775] (first compound max 1 µM, partner max 1 µM)
combination Emax [1]: 0.966 | combination Emax [2]: 0.891 | combination Emax [3]: 0.771 | combination Emax [4]: 0.467

CCN(CCO)CCCOc1ccc2c(Nc3cc(CC(=O)Nc4cccc(F)c4)[nH]n3)ncnc2c1 [AZD2811] + C[C@@H]1COCCN1C2=NC(=NC(=C2)C3(CC3)[S@](=N)(=O)C)C4=C5C=CNC5=NC=C4 [AZD6738] (first compound max 1 µM, 7x7, partner max 10 µM)
combination Emax [1]: 0.981 | combination Emax [2]: 0.99 | combination Emax [3]: 0.783 | combination Emax [4]: 0.8

CCN(CCO)CCCOc1ccc2c(Nc3cc(CC(=O)Nc4cccc(F)c4)[nH]n3)ncnc2c1 [AZD2811] + O=C(c1cc(Cc2n[nH]c(=O)c3ccccc23)ccc1F)N1CCN(C(=O)C2CC2)CC1 [Olaparib] (first compound max 1 µM, 7x7, partner max 10 µM)
combination Emax [1]: 0.953 | combination Emax [2]: 0.37 | combination Emax [3]: 0.668 | combination Emax [4]: 0.127

CN(CCO)CC[C@H](CSc1ccccc1)Nc1ccc(S(=O)(=O)NC(=O)c2ccc(N3CCC([C@@H](O)c4ccccc4-c4ccc(Cl)cc4)CC3)cc2)cc1S(=O)(=O)C(F)(F)F [AZD4320] + CN(C)CCCOc1ccc(-c2ccc3ncc4c(c3c2)n(C2CCOCC2)c(=O)n4C)cn1 [AZD0156] (first compound max 1 µM, 7x7, partner max 1 µM)
combination Emax [1]: 1 | combination Emax [2]: 0.853 | combination Emax [3]: 0.135 | combination Emax [4]: 0.0749

COc1nnc2ccc(N3CCC(c4ccc(OCCN5CCN(C)C(=O)[C@H]5C)cc4)CC3)nn12 [AZD5153] + C=CCn1c(=O)c2cnc(Nc3ccc(N4CCN(C)CC4)cc3)nc2n1-c1cccc(C(C)(C)O)n1 [AZD1775] (first compound max 1 µM, partner max 1 µM)
combination Emax [1]: 0.98 | combination Emax [2]: 0.88 | combination Emax [3]: 0.711 | combination Emax [4]: 0.435

COc1nnc2ccc(N3CCC(c4ccc(OCCN5CCN(C)C(=O)[C@H]5C)cc4)CC3)nn12 [AZD5153] + CC1(C)CCC(CN2CCN(c3ccc(C(=O)NS(=O)(=O)c4ccc(NCC5CCOCC5)c([N+](=O)[O-])c4)c(Oc4cnc5[nH]ccc5c4)c3)CC2)=C(c2ccc(Cl)cc2)C1 [Venetoclax] (first compound max 1 µM, 7x7, partner max 1 µM)
combination Emax [1]: 0.956 | combination Emax [2]: 0.979 | combination Emax [3]: 0.715 | combination Emax [4]: 0.19

COc1nnc2ccc(N3CCC(c4ccc(OCCN5CCN(C)C(=O)[C@H]5C)cc4)CC3)nn12 [AZD5153] + CCN(CCO)CCCOc1ccc2c(Nc3cc(CC(=O)Nc4cccc(F)c4)[nH]n3)ncnc2c1 [AZD2811] (first compound max 1 µM, 7x7, partner max 1 µM)
combination Emax [1]: 1 | combination Emax [2]: 0.752 | combination Emax [3]: 0.802 | combination Emax [4]: 0.301

COc1nnc2ccc(N3CCC(c4ccc(OCCN5CCN(C)C(=O)[C@H]5C)cc4)CC3)nn12 [AZD5153] + C[C@@H]1COCCN1C2=NC(=NC(=C2)C3(CC3)[S@](=N)(=O)C)C4=C5C=CNC5=NC=C4 [AZD6738] (first compound max 1 µM, 7x7, partner max 10 µM)
combination Emax [1]: 1 | combination Emax [2]: 0.965 | combination Emax [3]: 0.769 | combination Emax [4]: 0.731

COc1nnc2ccc(N3CCC(c4ccc(OCCN5CCN(C)C(=O)[C@H]5C)cc4)CC3)nn12 [AZD5153] + Cc1c2c(nn1C)CSCc1cc(n(C)n1)CSc1cc(c3ccccc3c1)OCCCc1c(C(=O)O)n(C)c3c-2c(Cl)ccc13 [AZD5991] (first compound max 1 µM, 7x7, partner max 1 µM)
combination Emax [1]: 0.984 | combination Emax [2]: 0.873 | combination Emax [3]: 0.763 | combination Emax [4]: 0.242

COc1nnc2ccc(N3CCC(c4ccc(OCCN5CCN(C)C(=O)[C@H]5C)cc4)CC3)nn12 [AZD5153] + Cn1cnc2c(F)c(Nc3ccc(Br)cc3Cl)c(C(=O)NOCCO)cc21 [Selumetinib] (first compound max 1 µM, 7x7, partner max 10 µM)
combination Emax [1]: 0.778 | combination Emax [2]: 0.849 | combination Emax [3]: 0.658 | combination Emax [4]: 0.414

Cc1c2c(nn1C)CSCc1cc(n(C)n1)CSc1cc(c3ccccc3c1)OCCCc1c(C(=O)O)n(C)c3c-2c(Cl)ccc13 [AZD5991] + C1CN(CCC1(C(=O)N[C@@H](CCO)C2=CC=C(C=C2)Cl)N)C3=NC=NC4=C3C=CN4 [Capivasertib] (first compound max 1 µM, 7x7, partner max 3 µM)
combination Emax [1]: 1 | combination Emax [2]: 0.527 | combination Emax [3]: 0.444 | combination Emax [4]: 0.112

Cc1c2c(nn1C)CSCc1cc(n(C)n1)CSc1cc(c3ccccc3c1)OCCCc1c(C(=O)O)n(C)c3c-2c(Cl)ccc13 [AZD5991] + C=CCn1c(=O)c2cnc(Nc3ccc(N4CCN(C)CC4)cc3)nc2n1-c1cccc(C(C)(C)O)n1 [AZD1775] (first compound max 1 µM, partner max 1 µM)
combination Emax [1]: 1 | combination Emax [2]: 0.907 | combination Emax [3]: 0.761 | combination Emax [4]: 0.573

Cc1c2c(nn1C)CSCc1cc(n(C)n1)CSc1cc(c3ccccc3c1)OCCCc1c(C(=O)O)n(C)c3c-2c(Cl)ccc13 [AZD5991] + CC1(C)CCC(CN2CCN(c3ccc(C(=O)NS(=O)(=O)c4ccc(NCC5CCOCC5)c([N+](=O)[O-])c4)c(Oc4cnc5[nH]ccc5c4)c3)CC2)=C(c2ccc(Cl)cc2)C1 [Venetoclax] (first compound max 1 µM, 7x7, partner max 1 µM)
combination Emax [1]: 1 | combination Emax [2]: 0.984 | combination Emax [3]: 0.257 | combination Emax [4]: 0.21
